Measured values as given in ChEMBL document CHEMBL1909046, “DrugMatrix in vitro pharmacology data”.

Tests used:
[1] = DRUGMATRIX: Glutamate, NMDA, Phencyclidine radioligand binding (ligand: [3H] TCP); assay type: cell membranes, Rattus norvegicus, Wistar, Cerebral cortex, Membrane; settings: Not Active = under 50% inhibition at 10 µM
[2] = biological target: T1, Cysteinyl leukotriene receptor 1 (Homo sapiens, UniProt Q9Y271); assay type: cell membranes, CHO-K1, Membrane; also: in other assays of this panel Not Active means under 50% inhibition at 10 µM
T1 sequence (Q9Y271 whole entry): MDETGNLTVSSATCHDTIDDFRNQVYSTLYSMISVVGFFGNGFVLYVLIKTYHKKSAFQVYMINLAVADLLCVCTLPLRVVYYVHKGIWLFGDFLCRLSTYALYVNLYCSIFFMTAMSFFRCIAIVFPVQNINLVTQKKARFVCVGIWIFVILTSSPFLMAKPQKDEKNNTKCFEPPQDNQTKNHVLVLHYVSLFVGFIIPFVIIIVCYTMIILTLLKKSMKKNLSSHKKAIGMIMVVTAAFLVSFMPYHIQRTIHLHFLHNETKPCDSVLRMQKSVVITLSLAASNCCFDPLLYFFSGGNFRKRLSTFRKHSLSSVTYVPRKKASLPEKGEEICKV

[3] = DRUGMATRIX: Glutamate, Kainate radioligand binding (ligand: [3H] Kainic acid); assay type: cell membranes, Rattus norvegicus, Wistar, Brain, Membrane; settings: Not Active = under 50% inhibition at 10 µM
Substance-P receptor = Substance-P receptor (Homo sapiens, UniProt P25103); assay type: cell membranes, Membrane; settings: cho; also: in other assays of this panel Not Active means under 50% inhibition at 10 µM
Cytochrome P450 2D6 = Cytochrome P450 2D6 (Homo sapiens, UniProt P10635); settings: bti-tn-5b1-4; also: in other assays of this panel Not Active means under 50% inhibition at 10 µM
[4] = biological target: T2, C-C chemokine receptor type 4 (Homo sapiens, UniProt P51679); assay type: cell membranes, Membrane; settings: chem-1; also: in other assays of this panel Not Active means under 50% inhibition at 10 µM
T2 sequence (P51679 whole entry): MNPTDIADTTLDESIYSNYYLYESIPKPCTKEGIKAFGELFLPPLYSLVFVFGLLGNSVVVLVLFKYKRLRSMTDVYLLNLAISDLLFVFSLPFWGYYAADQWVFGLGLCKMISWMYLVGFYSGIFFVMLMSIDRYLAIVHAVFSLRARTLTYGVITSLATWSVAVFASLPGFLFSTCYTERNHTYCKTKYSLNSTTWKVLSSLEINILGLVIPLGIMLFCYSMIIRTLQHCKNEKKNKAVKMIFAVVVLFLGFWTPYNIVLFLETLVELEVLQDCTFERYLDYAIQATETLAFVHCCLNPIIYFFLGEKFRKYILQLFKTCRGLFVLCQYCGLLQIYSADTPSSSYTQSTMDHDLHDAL

Melanocortin receptor 3 = Melanocortin receptor 3 (Homo sapiens, UniProt P41968); assay type: cell membranes, Membrane; settings: hek293; also: in other assays of this panel Not Active means under 50% inhibition at 10 µM
[5] = DRUGMATRIX: Leukotriene, BLT (LTB4) radioligand binding (ligand: [3H]LTB4); assay type: cell membranes, Membrane; settings: u-937; Not Active = under 50% inhibition at 10 µM
Estrogen receptor beta = Estrogen receptor beta (Homo sapiens, UniProt Q92731); settings: sf9; also: in other assays of this panel Not Active means under 50% inhibition at 10 µM
[6] = DRUGMATRIX: Calcium Channel Type L, Dihydropyridine radioligand binding (ligand: [3H] Nitrendipine); assay type: cell membranes, Rattus norvegicus, Wistar, Cerebral cortex, Membrane; settings: Not Active = under 50% inhibition at 10 µM
[7] = biological target: T3, Neuropeptide Y receptor type 2 (Homo sapiens, UniProt P49146); assay type: cell membranes, Membrane; settings: kan-ts; also: in other assays of this panel Not Active means under 50% inhibition at 10 µM
T3 sequence (P49146 whole entry): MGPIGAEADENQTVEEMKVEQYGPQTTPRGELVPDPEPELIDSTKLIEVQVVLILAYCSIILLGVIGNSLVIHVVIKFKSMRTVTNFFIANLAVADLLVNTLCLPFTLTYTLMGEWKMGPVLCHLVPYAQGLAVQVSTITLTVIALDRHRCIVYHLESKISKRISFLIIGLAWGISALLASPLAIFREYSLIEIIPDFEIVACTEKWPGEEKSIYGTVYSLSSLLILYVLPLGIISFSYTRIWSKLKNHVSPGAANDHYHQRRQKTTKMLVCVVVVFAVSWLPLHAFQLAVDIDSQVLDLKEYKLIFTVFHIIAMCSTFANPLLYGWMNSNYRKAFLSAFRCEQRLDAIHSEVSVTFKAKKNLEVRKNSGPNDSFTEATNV

Chain of Estrogen receptor beta (Q92731 whole entry): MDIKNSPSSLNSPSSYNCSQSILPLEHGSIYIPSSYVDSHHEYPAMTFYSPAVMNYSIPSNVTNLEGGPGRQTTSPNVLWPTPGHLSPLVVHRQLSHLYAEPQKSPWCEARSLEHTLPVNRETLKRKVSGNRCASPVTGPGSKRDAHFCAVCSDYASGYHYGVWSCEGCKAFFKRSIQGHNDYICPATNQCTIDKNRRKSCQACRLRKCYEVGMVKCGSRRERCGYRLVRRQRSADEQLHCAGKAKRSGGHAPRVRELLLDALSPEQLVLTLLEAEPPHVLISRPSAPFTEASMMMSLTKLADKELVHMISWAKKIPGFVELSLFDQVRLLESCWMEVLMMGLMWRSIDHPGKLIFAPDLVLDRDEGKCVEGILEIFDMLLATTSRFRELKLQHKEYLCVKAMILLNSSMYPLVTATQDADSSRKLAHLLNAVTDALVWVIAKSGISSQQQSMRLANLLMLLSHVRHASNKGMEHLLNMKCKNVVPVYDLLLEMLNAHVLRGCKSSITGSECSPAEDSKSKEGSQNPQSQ
Chain of Substance-P receptor (P25103 whole entry): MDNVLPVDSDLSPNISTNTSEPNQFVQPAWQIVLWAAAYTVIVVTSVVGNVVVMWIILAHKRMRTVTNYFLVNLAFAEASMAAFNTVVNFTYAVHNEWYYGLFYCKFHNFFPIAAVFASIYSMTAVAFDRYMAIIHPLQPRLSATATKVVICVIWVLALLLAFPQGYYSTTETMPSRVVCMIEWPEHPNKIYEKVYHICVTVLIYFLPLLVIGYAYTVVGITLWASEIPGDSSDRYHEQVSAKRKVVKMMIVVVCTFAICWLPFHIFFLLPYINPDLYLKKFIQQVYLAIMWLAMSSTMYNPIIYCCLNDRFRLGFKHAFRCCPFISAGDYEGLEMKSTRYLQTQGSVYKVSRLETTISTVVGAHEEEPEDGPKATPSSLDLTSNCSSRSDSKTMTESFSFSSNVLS
Chain of Melanocortin receptor 3 (P41968 whole entry): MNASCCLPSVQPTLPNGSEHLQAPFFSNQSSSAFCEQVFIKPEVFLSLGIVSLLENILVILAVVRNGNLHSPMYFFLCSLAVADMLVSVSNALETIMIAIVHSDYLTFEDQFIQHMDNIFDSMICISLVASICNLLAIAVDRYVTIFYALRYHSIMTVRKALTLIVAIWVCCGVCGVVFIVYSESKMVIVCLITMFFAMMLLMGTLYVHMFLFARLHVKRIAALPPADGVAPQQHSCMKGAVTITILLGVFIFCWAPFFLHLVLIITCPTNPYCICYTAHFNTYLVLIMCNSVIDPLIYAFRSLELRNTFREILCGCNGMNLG
Chain of Cytochrome P450 2D6 (P10635 whole entry): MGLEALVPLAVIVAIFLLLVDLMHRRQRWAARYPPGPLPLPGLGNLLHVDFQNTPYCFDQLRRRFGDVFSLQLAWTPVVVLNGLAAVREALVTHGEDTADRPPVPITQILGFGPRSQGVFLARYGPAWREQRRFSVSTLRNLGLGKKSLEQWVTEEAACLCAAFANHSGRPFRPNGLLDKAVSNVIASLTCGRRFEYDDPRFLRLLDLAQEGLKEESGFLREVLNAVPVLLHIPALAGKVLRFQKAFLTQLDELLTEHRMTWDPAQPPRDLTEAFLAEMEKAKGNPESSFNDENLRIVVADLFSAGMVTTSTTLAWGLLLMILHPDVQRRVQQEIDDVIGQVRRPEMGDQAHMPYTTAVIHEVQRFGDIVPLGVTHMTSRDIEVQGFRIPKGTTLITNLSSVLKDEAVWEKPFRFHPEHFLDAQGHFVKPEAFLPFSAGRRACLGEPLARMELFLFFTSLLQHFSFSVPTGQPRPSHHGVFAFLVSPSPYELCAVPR

In the case of `CC[C@]1(O)C[C@@H]2CN(CCc3c([nH]c4ccccc34)[C@@](C(=O)OC)(c3cc4c(cc3OC)N(C)[C@H]3[C@@](O)(C(=O)OC)[C@H](OC(C)=O)[C@]5(CC)C=CCN6CC[C@]43[C@@H]65)C2)C1` [VINBLASTINE], the IC50 [1] is reported as “Not Active”, the Ki [1] is reported as “Not Active” and the IC50 ([2]; cho-k1) is reported as “Not Active”. The IC50 [3] was “Not Active”, the Ki [3] was “Not Active” and the IC50 (Substance-P receptor) was “Not Active”. For the same compound, the IC50 (Cytochrome P450 2D6) was “Not Active”, the Ki (Cytochrome P450 2D6) was “Not Active” and the IC50 [4] was “Not Active”. The IC50 (Melanocortin receptor 3) was “Not Active”, the IC50 [5] was “Not Active” and the Ki [5] was “Not Active”. For the same compound, the IC50 (Estrogen receptor beta) was “Not Active”, the IC50 [6] was “Not Active” and the Ki [6] was “Not Active”. For the same compound, the IC50 [7] was “Not Active”.
With `COc1cc(NS(=O)(=O)c2ccc(N)cc2)nc(OC)n1` [SULFADIMETHOXINE] the IC50 [1] was “Not Active”, the Ki [1] was “Not Active” and the IC50 ([2]; cho-k1) was “Not Active”. For the same compound, the IC50 [3] was “Not Active”, the Ki [3] was “Not Active” and the IC50 (Substance-P receptor) was “Not Active”. The IC50 (Cytochrome P450 2D6) was “Not Active”, the Ki (Cytochrome P450 2D6) was “Not Active” and the IC50 [4] was “Not Active”. The IC50 (Melanocortin receptor 3) was “Not Active”, the IC50 [5] was “Not Active” and the Ki [5] was “Not Active”. The IC50 (Estrogen receptor beta) was “Not Active”, the IC50 [6] was “Not Active” and the Ki [6] was “Not Active”. For the same compound, the IC50 [7] was “Not Active”.
In the case of `O=C(c1ccc(OCCN2CCCCC2)cc1)c1c(-c2ccc(O)cc2)sc2cc(O)ccc12` [RALOXIFENE], the IC50 [1] is reported as “Not Active”, the Ki [1] is reported as “Not Active” and the IC50 ([2]; cho-k1) is reported as “Not Active”. The IC50 [3] was “Not Active”, the Ki [3] was “Not Active” and the IC50 (Substance-P receptor) was “Not Active”. For the same compound, the IC50 (Cytochrome P450 2D6) was “Not Active”, the Ki (Cytochrome P450 2D6) was “Not Active” and the IC50 [4] was “Not Active”. The IC50 (Melanocortin receptor 3) was “Not Active”, the IC50 [5] was “Not Active” and the Ki [5] was “Not Active”. For the same compound, the IC50 (Estrogen receptor beta) was “Not Active”, the IC50 ([6]; read-out: IC50) was 0.388 µM and the Ki ([6]; read-out: Ki) was 0.249 µM. The IC50 [7] was “Not Active”.
With `CC/C(=C(/CC)c1ccc(O)cc1)c1ccc(O)cc1` [DIETHYLSTILBESTROL] the IC50 ([2]; read-out: IC50) was 17.7 µM, the Ki ([2]; read-out: Ki) was 8.87 µM and the IC50 (Substance-P receptor) was “Not Active”. For the same compound, the IC50 (Cytochrome P450 2D6) was “Not Active”, the Ki (Cytochrome P450 2D6) was “Not Active” and the IC50 [4] was “Not Active”. For the same compound, the IC50 (Melanocortin receptor 3) was “Not Active”, the IC50 (Estrogen receptor beta) was “Not Active” and the IC50 [7] was “Not Active”.
For `CN1C(C(=O)Nc2ccccn2)=C(O)c2sccc2S1(=O)=O` [TENOXICAM], the IC50 [1] was “Not Active”, the Ki [1] was “Not Active” and the IC50 ([2]; cho-k1) was “Not Active”. For the same compound, the IC50 [3] was “Not Active”, the Ki [3] was “Not Active” and the IC50 (Substance-P receptor) was “Not Active”. For the same compound, the IC50 (Cytochrome P450 2D6) was “Not Active”, the Ki (Cytochrome P450 2D6) was “Not Active” and the IC50 [4] was “Not Active”. The IC50 (Melanocortin receptor 3) was “Not Active”, the IC50 [5] was “Not Active” and the Ki [5] was “Not Active”. The IC50 (Estrogen receptor beta) was “Not Active”, the IC50 [6] was “Not Active” and the Ki [6] was “Not Active”. The IC50 [7] was “Not Active”.
In the case of `CC(=O)N[C@@H]1[C@H](Oc2c3cc4cc2Oc2ccc(cc2Cl)[C@@H](O[C@@H]2O[C@@H](CO)[C@@H](O)[C@H](O)[C@@H]2NC(C)=O)[C@@H]2NC(=O)[C@H](NC(=O)[C@@H]4NC(=O)[C@H]4NC(=O)[C@@H](Cc5ccc(c(Cl)c5)O3)NC(=O)[C@H](N)c3ccc(O)c(c3)Oc3cc(O)cc4c3)c3ccc(O)c(c3)-c3c(O[C@H]4O[C@H](CO)[C@@H](O)[C@@H](O)[C@@H]4O)cc(O)cc3[C@@H](C(=O)O)NC2=O)O[C@@H](CO)[C@@H](O)[C@@H]1O`, the IC50 [1] is reported as “Not Active”, the Ki [1] is reported as “Not Active” and the IC50 ([2]; cho-k1) is reported as “Not Active”. For the same compound, the IC50 [3] was “Not Active”, the Ki [3] was “Not Active” and the IC50 (Substance-P receptor) was “Not Active”. The IC50 (Cytochrome P450 2D6) was “Not Active”, the Ki (Cytochrome P450 2D6) was “Not Active” and the IC50 [4] was “Not Active”. The IC50 (Melanocortin receptor 3) was “Not Active”, the IC50 [5] was “Not Active” and the Ki [5] was “Not Active”. The IC50 (Estrogen receptor beta) was “Not Active”, the IC50 [6] was “Not Active” and the Ki [6] was “Not Active”. For the same compound, the IC50 [7] was “Not Active”.
For `CN1CCC(=C2c3ccccc3C=Cc3ccccc32)CC1` [CYPROHEPTADINE], the IC50 ([2]; cho-k1) was “Not Active”, the IC50 (Substance-P receptor) was “Not Active” and the IC50 (Cytochrome P450 2D6) was “Not Active”. The Ki (Cytochrome P450 2D6) was “Not Active”, the IC50 [4] was “Not Active” and the IC50 (Melanocortin receptor 3) was “Not Active”. The IC50 (Estrogen receptor beta) was “Not Active” and the IC50 [7] was “Not Active”.
With `COc1cc2c(c(OC)c1OC)-c1ccc(OC)c(=O)cc1[C@@H](NC(C)=O)CC2` [COLCHICINE] the IC50 ([2]; cho-k1) was “Not Active”, the IC50 (Substance-P receptor) was “Not Active” and the IC50 (Cytochrome P450 2D6) was “Not Active”. The Ki (Cytochrome P450 2D6) was “Not Active”, the IC50 [4] was “Not Active” and the IC50 (Melanocortin receptor 3) was “Not Active”. The IC50 (Estrogen receptor beta) was “Not Active” and the IC50 [7] was “Not Active”.
